The text below walks through data of ChEMBL document CHEMBL3751728, “C5-substituted pyrido[2,3-d]pyrimidin-7-ones as highly specific kinase inhibitors targeting the clinical resistance-related EGFRT790Mmutant” (Medchemcomm, 2015).

The source made the active and inactive calls. The rule behind the calls is not given here.

Data set [1] addresses T1, Epidermal growth factor receptor (Homo sapiens, UniProt P00533). Kind of data set: Inhibiton of wild type EGFR (unknown origin) using Poly (Glu4Tyr1) as substrate incubated for 1 hr by ELISA. The format is single protein. In general terms: An ELISA detects its analyte on a solid surface through an enzyme-linked reagent.
For data set [2], the target named is T2, Epidermal growth factor receptor (Homo sapiens, UniProt P00533, L858R/T790M). It is filed as protein assay.
T2 sequence (P00533 25-1210 T790M/L858R limits assumed): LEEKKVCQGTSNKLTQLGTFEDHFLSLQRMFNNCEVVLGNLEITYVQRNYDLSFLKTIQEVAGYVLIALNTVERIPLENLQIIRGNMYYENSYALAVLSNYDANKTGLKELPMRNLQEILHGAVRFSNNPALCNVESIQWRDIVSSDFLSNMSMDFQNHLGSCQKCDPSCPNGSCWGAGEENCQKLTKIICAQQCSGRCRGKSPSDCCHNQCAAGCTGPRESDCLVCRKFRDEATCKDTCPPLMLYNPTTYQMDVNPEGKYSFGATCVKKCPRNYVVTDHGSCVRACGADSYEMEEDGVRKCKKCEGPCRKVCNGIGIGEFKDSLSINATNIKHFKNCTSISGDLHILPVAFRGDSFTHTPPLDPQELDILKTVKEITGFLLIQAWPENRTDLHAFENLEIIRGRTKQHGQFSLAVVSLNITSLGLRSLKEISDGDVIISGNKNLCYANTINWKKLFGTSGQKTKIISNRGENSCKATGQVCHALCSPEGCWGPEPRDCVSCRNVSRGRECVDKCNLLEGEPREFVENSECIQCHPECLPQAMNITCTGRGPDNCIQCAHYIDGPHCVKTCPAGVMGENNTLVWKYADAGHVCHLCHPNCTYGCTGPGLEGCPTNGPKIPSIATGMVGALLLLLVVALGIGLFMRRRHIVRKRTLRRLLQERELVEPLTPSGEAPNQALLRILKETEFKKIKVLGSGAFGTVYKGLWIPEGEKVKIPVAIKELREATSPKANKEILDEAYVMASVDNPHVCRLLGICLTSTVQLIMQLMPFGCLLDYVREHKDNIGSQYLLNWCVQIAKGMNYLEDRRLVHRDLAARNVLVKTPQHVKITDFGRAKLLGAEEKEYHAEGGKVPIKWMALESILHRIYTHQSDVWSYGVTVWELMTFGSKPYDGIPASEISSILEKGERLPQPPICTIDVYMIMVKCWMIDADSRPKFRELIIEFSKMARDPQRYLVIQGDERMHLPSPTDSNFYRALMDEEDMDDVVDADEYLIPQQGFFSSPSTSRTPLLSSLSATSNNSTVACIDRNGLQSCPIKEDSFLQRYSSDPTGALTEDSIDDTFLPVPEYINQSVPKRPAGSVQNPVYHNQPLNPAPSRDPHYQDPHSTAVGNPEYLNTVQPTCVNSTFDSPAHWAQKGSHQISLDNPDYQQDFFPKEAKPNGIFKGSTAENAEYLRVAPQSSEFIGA
The target of data set [3] is T1, Epidermal growth factor receptor.
The target in data set [4] is T2, Epidermal growth factor receptor.
Data set [5] deals with NCI-H1975. Nature of the data set: Effect on total EGFR T790M mutant level in EGF-stimulated human NCI-H1975 cells preincubated for 2 hrs followed by EGF stimulation measured after 15 mins by Western blot analysis. The format is ADME, cell-based. To be noted: nci-h1975, 0.25 h. (In general: Immunoblotting shows a protein as a band on a membrane.)
The test system of data set [6] is NCI-H1975. Kind of data set: Cytotoxicity against human NCI-H1975 harboring EGFR L858R/T790M mutant after 72 hrs by SRB assay. The format is functional, cell-based. The conditions noted are these: NCI-H1975, 72 h. On the technique in general: The SRB assay estimates cell density from bound dye.
Data set [7] has as its system A-431. Kind of data set: Cytotoxicity against human A431 cells overexpressing wild type EGFR after 72 hrs by SRB assay. It is filed as cell-based. The conditions noted are these: A-431, 72 h.
For data set [8], the system named is NCI-H1975. Nature of the data set: Selectivity index, ratio of IC50 for human A431 cells overexpressing wild type EGFR to IC50 for human NCI-H1975 cells harboring EGFR L858R/T790M mutant.
The species entered for data set [9] is Homo sapiens. Nature of the data set: Selectivity index, ratio of IC50 for wild type EGFR (unknown origin) to IC50 for EGFR L858R/T790M mutant (unknown origin).
The species named for data set [10] is Homo sapiens. Nature of the data set: Selectivity ratio of Kd for wild type human EGFR to Kd for human EGFR L858R/T790M mutant.
Data set [11] has as its system NCI-H1975. Kind of data set: Effect on total AKT level in EGF-stimulated human NCI-H1975 cells expressing EGFR T790M mutant preincubated for 2 hrs followed by EGF stimulation measured after 15 mins by Western blot analysis. It is filed as ADME, cell-based. To be noted: nci-h1975, 0.25 h.
Data set [12] deals with NCI-H1975. Kind of data set: Effect on total ERK level in EGF-stimulated human NCI-H1975 cells expressing EGFR T790M mutant preincubated for 2 hrs followed by EGF stimulation measured after 15 mins by Western blot analysis. The format is ADME, cell-based. The conditions noted are these: nci-h1975, 0.25 h.
Data set [13] addresses T1, Epidermal growth factor receptor. Kind of data set: Inhibition of EGF-stimulated wild type EGFR phosphorylation in human A431 cells at 100 nM preincubated for 2 hrs followed by EGF stimulation measured after 15 mins by Western blot analysis. The format is cell-based. To be noted: a-431, 0.25 h, 0.1 µM.
For data set [14] the target is unchanged. Nature of the data set: Inhibition of EGF-stimulated wild type EGFR phosphorylation in human A431 cells assessed as suppression of AKT phosphorylation at 100 nM preincubated for 2 hrs followed by EGF stimulation measured after 15 mins by Western blot analysis. The format is cell-based. To be noted: a-431, 0.25 h, 0.1 µM.
For data set [15] the target is unchanged. Kind of data set: Inhibition of EGF-stimulated wild type EGFR phosphorylation in human A431 cells assessed as suppression of ERK phosphorylation at 100 nM preincubated for 2 hrs followed by EGF stimulation measured after 15 mins by Western blot analysis. The format is cell-based. The conditions noted are these: a-431, 0.25 h, 0.1 µM.
In data set [16] the test system is NCI-H1975. Kind of data set: Selectivity index, ratio of IC50 for human GES1 cells to IC50 for human NCI-H1975 cells harboring EGFR L858R/T790M mutant.
The test system of data set [17] is NCI-H1975. Nature of the data set: Selectivity index, ratio of IC50 for human LO2 cells to IC50 for human NCI-H1975 cells harboring EGFR L858R/T790M mutant.
The test system of data set [18] is NCI-H1975. Kind of data set: Selectivity index, ratio of IC50 for human WI38 cells to IC50 for human NCI-H1975 cells harboring EGFR L858R/T790M mutant.
In data set [19] the test system is NCI-H1975. Kind of data set: Selectivity index, ratio of IC50 for human MCF10A cells to IC50 for human NCI-H1975 cells harboring EGFR L858R/T790M mutant.
The test system of data set [20] is Epidermal growth factor receptor (Homo sapiens), P00533 [L858R,T790M]. To be noted: H1975, 1 uM.
Sequence of Epidermal growth factor receptor (Homo sapiens), P00533 [L858R,T790M] (P00533 whole entry T790M/L858R, looked up): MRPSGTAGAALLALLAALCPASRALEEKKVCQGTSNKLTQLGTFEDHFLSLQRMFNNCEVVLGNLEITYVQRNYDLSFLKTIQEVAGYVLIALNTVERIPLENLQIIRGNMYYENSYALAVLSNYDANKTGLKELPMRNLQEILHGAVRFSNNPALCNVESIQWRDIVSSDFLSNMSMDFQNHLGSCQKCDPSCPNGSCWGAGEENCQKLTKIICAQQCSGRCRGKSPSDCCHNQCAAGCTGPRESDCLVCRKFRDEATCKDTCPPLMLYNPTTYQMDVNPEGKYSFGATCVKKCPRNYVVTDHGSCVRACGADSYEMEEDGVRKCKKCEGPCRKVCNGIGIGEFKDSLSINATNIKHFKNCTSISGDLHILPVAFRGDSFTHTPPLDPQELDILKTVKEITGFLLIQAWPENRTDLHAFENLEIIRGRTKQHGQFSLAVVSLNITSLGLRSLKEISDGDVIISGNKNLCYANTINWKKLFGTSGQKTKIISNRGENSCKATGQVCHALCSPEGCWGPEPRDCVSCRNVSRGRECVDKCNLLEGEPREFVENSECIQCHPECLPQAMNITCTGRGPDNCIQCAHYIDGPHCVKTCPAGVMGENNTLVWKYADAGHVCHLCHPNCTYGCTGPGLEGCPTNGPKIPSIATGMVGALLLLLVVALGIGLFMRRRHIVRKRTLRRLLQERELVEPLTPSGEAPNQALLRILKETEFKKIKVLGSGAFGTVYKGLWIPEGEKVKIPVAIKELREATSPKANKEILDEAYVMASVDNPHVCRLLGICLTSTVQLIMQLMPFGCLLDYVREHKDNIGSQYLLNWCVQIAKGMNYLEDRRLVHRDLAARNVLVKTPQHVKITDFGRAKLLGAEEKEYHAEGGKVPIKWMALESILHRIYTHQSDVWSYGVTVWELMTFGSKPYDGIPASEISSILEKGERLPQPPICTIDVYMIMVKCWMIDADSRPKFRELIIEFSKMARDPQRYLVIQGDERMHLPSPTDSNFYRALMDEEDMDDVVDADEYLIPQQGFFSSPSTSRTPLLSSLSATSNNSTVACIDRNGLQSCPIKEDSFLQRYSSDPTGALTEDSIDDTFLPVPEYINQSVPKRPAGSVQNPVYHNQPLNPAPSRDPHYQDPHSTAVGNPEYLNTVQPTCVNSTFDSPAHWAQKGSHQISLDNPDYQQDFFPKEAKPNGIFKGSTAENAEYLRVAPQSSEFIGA
Data set [21] has the same test system. The conditions noted are these: 100 nM.
Data set [22] has as its system Epidermal growth factor receptor (Homo sapiens), P00533 [T790M]. The conditions noted are these: 100 nM.
Data set [23] has the same test system. The conditions noted are these: H1975, 0.3 to 30 nM.
Data set [24] shares this test system. To be noted: H1975, 0.3 to 30 nM. The source holds these as a separate data set.
For data set [25] the test system is unchanged. The conditions noted are these: H1975, 0.3 to 30 nM. This is another data set of the same source.

Sequence of Epidermal growth factor receptor (Homo sapiens), P00533 [T790M] (P00533 whole entry T790M): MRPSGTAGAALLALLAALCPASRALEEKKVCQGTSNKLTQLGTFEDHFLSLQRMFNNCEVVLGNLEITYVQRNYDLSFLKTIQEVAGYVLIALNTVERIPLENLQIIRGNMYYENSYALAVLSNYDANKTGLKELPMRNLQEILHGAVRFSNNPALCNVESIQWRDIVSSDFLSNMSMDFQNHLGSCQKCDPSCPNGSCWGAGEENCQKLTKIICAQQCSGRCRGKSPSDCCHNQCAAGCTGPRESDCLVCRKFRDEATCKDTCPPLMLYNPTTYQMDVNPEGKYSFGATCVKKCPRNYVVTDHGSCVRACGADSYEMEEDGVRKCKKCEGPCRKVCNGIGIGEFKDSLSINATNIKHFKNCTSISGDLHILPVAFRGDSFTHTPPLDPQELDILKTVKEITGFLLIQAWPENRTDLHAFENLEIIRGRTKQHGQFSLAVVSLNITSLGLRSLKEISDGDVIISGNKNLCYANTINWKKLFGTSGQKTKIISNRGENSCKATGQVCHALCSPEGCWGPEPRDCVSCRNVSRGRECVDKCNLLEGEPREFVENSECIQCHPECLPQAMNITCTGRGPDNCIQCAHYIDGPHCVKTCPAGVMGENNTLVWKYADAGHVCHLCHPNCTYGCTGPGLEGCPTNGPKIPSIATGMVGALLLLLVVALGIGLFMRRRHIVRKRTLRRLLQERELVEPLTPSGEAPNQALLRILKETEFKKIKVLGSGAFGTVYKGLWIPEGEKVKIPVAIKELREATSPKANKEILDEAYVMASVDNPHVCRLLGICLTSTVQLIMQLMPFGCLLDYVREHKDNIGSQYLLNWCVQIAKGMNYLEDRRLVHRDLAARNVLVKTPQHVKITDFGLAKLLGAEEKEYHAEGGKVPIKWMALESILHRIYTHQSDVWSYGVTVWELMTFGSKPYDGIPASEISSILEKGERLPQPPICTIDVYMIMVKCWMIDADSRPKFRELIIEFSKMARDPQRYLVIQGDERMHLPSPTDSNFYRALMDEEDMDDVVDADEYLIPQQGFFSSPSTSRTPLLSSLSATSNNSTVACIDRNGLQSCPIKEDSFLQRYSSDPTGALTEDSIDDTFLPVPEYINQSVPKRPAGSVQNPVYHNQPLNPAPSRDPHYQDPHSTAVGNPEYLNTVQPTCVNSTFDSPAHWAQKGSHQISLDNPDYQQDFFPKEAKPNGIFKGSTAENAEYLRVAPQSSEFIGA
T1 sequence (P00533 whole entry): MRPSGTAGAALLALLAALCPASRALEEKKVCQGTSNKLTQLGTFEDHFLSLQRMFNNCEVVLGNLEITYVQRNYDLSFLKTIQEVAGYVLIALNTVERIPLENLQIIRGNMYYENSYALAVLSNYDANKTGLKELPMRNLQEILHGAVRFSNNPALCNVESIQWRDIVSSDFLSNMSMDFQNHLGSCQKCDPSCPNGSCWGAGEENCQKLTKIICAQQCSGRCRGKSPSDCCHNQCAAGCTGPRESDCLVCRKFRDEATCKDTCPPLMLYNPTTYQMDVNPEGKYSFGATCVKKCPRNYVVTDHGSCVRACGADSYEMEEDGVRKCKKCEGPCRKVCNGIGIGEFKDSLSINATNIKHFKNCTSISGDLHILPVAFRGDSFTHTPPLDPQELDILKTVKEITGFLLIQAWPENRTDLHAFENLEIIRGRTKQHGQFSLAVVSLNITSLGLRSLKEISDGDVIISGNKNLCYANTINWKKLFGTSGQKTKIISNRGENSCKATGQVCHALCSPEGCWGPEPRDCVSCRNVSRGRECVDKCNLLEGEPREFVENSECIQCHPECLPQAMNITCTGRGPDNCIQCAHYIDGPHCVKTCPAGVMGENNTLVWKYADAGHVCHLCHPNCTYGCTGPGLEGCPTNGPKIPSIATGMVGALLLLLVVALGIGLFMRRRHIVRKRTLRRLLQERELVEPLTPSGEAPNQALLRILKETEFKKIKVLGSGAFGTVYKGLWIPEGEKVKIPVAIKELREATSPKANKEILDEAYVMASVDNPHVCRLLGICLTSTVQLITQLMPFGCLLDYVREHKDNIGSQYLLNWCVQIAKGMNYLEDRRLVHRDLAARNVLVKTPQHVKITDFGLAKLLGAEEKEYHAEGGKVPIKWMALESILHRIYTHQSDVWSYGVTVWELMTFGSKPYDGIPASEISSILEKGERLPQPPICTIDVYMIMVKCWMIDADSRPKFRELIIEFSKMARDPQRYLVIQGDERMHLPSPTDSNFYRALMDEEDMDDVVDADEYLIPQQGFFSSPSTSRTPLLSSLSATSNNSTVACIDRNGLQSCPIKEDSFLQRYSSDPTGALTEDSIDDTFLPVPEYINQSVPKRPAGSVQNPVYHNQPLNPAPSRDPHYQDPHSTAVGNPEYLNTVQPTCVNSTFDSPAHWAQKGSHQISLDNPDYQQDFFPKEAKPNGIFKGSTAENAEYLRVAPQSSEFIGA

Usually IC50 stands for the concentration needed to halve the response being measured. Read a high IC50 as lower potency. As usually defined, the Kd is the free concentration of one partner at which half of the binding sites on the other are occupied at equilibrium, for simple one-to-one binding. Take `C=CC(=O)Nc1cccc(-n2c(=O)cc(CC)c3cnc(Nc4ccc(N5CCN(C)CC5)cc4OC)nc32)c1`: the IC50 in data set [1] was determined as 0.114 µM; in data set [2], 0.0067 µM. Moreover, the Kd in data set [3] was determined as 0.14 µM; in [4] it was 0.0018 µM.

`C=CC(=O)Nc1cccc(-n2c(=O)c(-c3ccccc3)cc3cnc(Nc4ccc(N5CCN(C)CC5)cc4OC)nc32)c1`: the IC50 in [1] was 0.0078 µM; in [2] it was 0.0002 µM. Moreover, the equilibrium dissociation constant (Kd) in data set [3] turned out to be 0.0025 µM; in [4] it was 0.0005 µM.

With `C=CC(=O)Nc1cccc(-n2c(=O)cc(C(F)(F)F)c3cnc(Nc4ccc(N5CCN(C)CC5)cc4OC)nc32)c1`, the concentration for half-maximal inhibition (IC50) in data set [1] is greater than 1 µM; in [2] it was 0.039 µM.

On to `C=CC(=O)Nc1cccc(-n2c(=O)cc(-c3ccccc3)c3cnc(Nc4ccc(N5CCN(C)CC5)cc4OC)nc32)c1`, for which the concentration for half-maximal inhibition (IC50) in data set [1] was determined as 0.097 µM; in data set [2], 0.021 µM.

For `C=CC(=O)Nc1cccc(-n2c(=O)cc(C)c3c(C)nc(Nc4ccc(N5CCN(C)CC5)cc4OC)nc32)c1`, the values for the IC50 in [1] and in [2] were greater than 1 µM and 0.28 µM, respectively.

As usually defined, the inhibition is the change of the read-out against control, counted positive when it falls. For the compound `C=CC(=O)Nc1cccc(-n2c(=O)cc(C)c3cnc(Nc4ccc(N5CCN(C)CC5)cc4OC)nc32)c1`, the half-maximal inhibitory concentration (IC50) in data set [1] was found to be 0.24 µM; in [2], 0.0008 µM; in data set [6], 0.0028 µM; in [7], 0.87 µM. The Activity result in [5], in [11] and in [12] was “Non-toxic” throughout. In addition, the “Ratio IC50” value is 311 in data set [8]; 300 in [9]; greater than 1000 in data set [16]; greater than 1000 in data set [17]; greater than 1000 in data set [18]; greater than 1000 in [19]. Also, the Kd is 0.048 µM in data set [3] and 0.00026 µM in data set [4]. Further, the Selectivity ratio in data set [10] came out at 185. Also, the “inhibition (INH)” value in data set [13], in [14] and in data set [15] was “Active” each time. Also, the inhibition entry in data set [20] is “Active”. Further, the inhibition in data set [21] is 99.5%; in data set [22], less than 65%.

Take `C=CC(=O)Nc1cccc(Oc2nc(Nc3ccc(N4CCN(C)CC4)cc3OC)ncc2Cl)c1`: the inhibition result in [23], in data set [24] and in [25] was “Active” throughout.

Take `C=CC(=O)Nc1cccc(-n2c(=O)cc(C)c3cnc(Nc4ccc(N5CCN(C)CC5)cc4OCCC)nc32)c1`: the IC50 in data set [1] was determined as 0.27 µM; in [2], 0.019 µM.

For `C=CC(=O)Nc1cccc(-n2c(=O)cc(C)c3cnc(Nc4ccc(N5CCN(C)CC5)cc4OC(C)C)nc32)c1`, the half-inhibitory concentration (IC50) in [1] was greater than 1 µM; in data set [2] it was 0.078 µM.

For the compound `C=CC(=O)Nc1cccc(-n2c(=O)cc(CCC)c3cnc(Nc4ccc(N5CCN(C)CC5)cc4OC)nc32)c1`, the IC50 in [1] stood at 0.97 µM; in data set [2], 0.0178 µM.

For the compound `C=CC(=O)Nc1cccc(-n2c(=O)cc(C(C)C)c3cnc(Nc4ccc(N5CCN(C)CC5)cc4OC)nc32)c1`, the IC50 in [1] was determined as 0.098 µM; in [2] it was 0.094 µM.

For `C=CC(=O)Nc1cccc(-n2c(=O)cc(C)c3cnc(Nc4ccc(N5CCN(C)CC5)cc4OCC)nc32)c1`, the IC50 was 0.17 µM in data set [1] and 0.011 µM in data set [2]. The Kd amounted to 0.35 µM in data set [3] and 0.0012 µM in data set [4].

As for `C=CC(=O)Nc1cccc(-n2c(=O)cc(N(C)C)c3cnc(Nc4ccc(N5CCN(C)CC5)cc4OC)nc32)c1`, the IC50 in data set [1] came to 0.21 µM; in data set [2], 0.095 µM.

For `C=CC(=O)Nc1cccc(-n2c(=O)c(C)cc3cnc(Nc4ccc(N5CCN(C)CC5)cc4OC)nc32)c1`, the results for the IC50 in data set [1] and in [2] were 0.016 µM and 0.0013 µM, respectively. Besides, the Kd in data set [3] came out at 0.0062 µM; in data set [4], 0.00088 µM.

Regarding `C=CC(=O)Nc1cccc(-n2c(=O)c(Cc3ccccc3)cc3cnc(Nc4ccc(N5CCN(C)CC5)cc4OC)nc32)c1`, the concentration for half-maximal inhibition (IC50) in data set [1] stood at 0.001 µM; in data set [2] it was 0.0005 µM. Moreover, the Ratio IC50 in [9] amounted to 2. Also, the Kd in data set [3] is 0.0012 µM; in data set [4], 0.0005 µM.

For `C=CC(=O)Nc1cccc(-n2c(=O)ccc3cnc(Nc4ccc(N5CCN(C)CC5)cc4OC)nc32)c1`, the IC50 in data set [1] worked out at 0.015 µM; in [2], 0.0005 µM. Moreover, the Ratio IC50 in data set [9] came to 30. Besides, the Kd was 0.014 µM in [3] and 0.00043 µM in data set [4]. Also, the Selectivity ratio in data set [10] turned out to be 32.5.

For `C=CC(=O)Nc1cccc(-n2c(=O)cc(C3CC3)c3cnc(Nc4ccc(N5CCN(C)CC5)cc4OC)nc32)c1`, the IC50 is 0.12 µM in data set [1] and 0.01 µM in [2]. For the same compound, the Kd was 0.057 µM in [3] and 0.0022 µM in [4].

Regarding `C=CC(=O)Nc1cccc(-n2c(=O)cc(-c3ccc(-c4ccccc4)cc3)c3cnc(Nc4ccc(N5CCN(C)CC5)cc4OC)nc32)c1`, the half-inhibitory concentration (IC50) in data set [1] and in data set [2] was greater than 1 µM throughout.

With `C=CC(=O)Nc1cccc(-n2c(=O)c(-c3ccccc3)c(C)c3cnc(Nc4ccc(N5CCN(C)CC5)cc4OC)nc32)c1`, the IC50 in data set [1] was 0.02 µM; in data set [2], 0.0016 µM. The dissociation constant Kd in [3] was determined as 0.0043 µM; in data set [4] it was 0.00091 µM.
